Like-named read-outs stand apart in the source and are kept apart here.
Experiments:
[1] = tested on: phosphodiesterase-4 (PDE-4) extract from U937 cells; assay: Phosphodiesterase-4 inhibiting activity (isotopic two-step method); assay type: biochemical; settings: for IC50: 1.01 μM [3H]cAMP+cAMP
[2] = tested on: production of human IL-1β by PBMC in response to LPS; assay: IL-1β assay (LPS-stimulated PBMC, sandwich ELISA); assay type: cell-based; settings: LPS 1 μg/ml, 72 hours
Protocol: Peripheral blood mononuclear cells (herein referred as PBMC), in response to stimulation by lipopolysaccharide (LPS), a gram-negative bacterial endotoxin, produce various […], in particular human IL-1β. Inhibition of the activation of PBMC can therefore be measured by the level of suppression of the production of IL-1β by PBMC in response to stimulation by LPS.
Such inhibition measurement was performed as follows: PBMC were isolated from heparinized peripheral blood by density gradient centrifugation over Lymphoprep (commercially available from Nycomed, Norway). LPS was then added to the PMBC suspension in complete medium (10^6 cells/ml) at a final concentration of 1 μg/ml. The pteridine derivative to be tested was added at different concentrations (0.1 μM, 1 μM and 10 μM) and the cells were incubated at 37° C. for 72 hours in 5% CO2. The supernatants were collected, then IL-1β concentrations were measured with an anti-IL-1β antibody in a sandwich ELISA. The calorimetric reading of the ELISA was measured by a Multiskan RC plate reader (commercially available from ThermoLabsystems, Finland) at 450 nm (reference wavelength: 690 nm). Data analysis was performed with Ascent software 2.6. (also from ThermoLabsystems, Finland): a standard curve (recombinant human IL-1β) was drawn and the amount (pg/ml) of each sample on the standard curve was determined.
The % suppression of human IL-1β by the pyrido[3,2-d]pyrimidine derivatives of this invention was calculated using the formula: [formula]

[3] = tested on: production of human TNF-α by PBMC in response to LPS; assay: TNF-α assay (LPS-stimulated PBMC, sandwich ELISA); assay type: cell-based
How it was run: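 Human PBMC isolated from heparinised blood by density gradient (10^6 cells/ml) stimulated with LPS at 1 μg/ml final, with test compound at 0.1, 1 and 10 μM, 72 h at 37° C, 5% CO2. Supernatant TNF-α quantified by sandwich ELISA against recombinant standard curve; % suppression calculated.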

[4] = tested on: peripheral blood mononuclear cells (PBMC) stimulated with allogeneic PBMC or EBV-transformed human B cells (RPMI1788); assay: Mixed lymphocyte reaction (MLR) assay; assay type: cell-based
How it was run: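 Compounds, held as 10 mM DMSO stocks and diluted in culture medium, were added to PBMC stimulated by 30 Gy-irradiated allogeneic PBMC or RPMI1788 cells. Proliferation was read as [3H]-thymidine uptake (1 μCi, final 16 h) after 5 days at 37° C. Inhibition was derived from cpm.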

[5] = tested on: HCV replicon in Huh-5-2 cells; assay: Anti-HCV assay/replicon assay (luciferase); assay type: cell-based; settings: Hepatitis C virus
Protocol: (§1) Huh-5-2 cells [a cell line with a persistent HCV replicon I3891uc-ubi-neo/NS3-3′/5.1; replicon with firefly luciferase-ubiquitin-neomycin phosphotransferase fusion protein and EMCV-IRES driven NS3-5B HCV polyprotein] was cultured in a RPMI medium (commercially available from Gibco) supplemented with 10% fetal calf serum, 2 mM L-glutamine (commercially available from Life Technologies), 1× non-essential amino acids (commercially available from Life Technologies); 100 IU/ml penicillin, 100 μg/ml streptomycin and 250 μg/ml G418 (Geneticin, commercially available from Life Technologies). Cells were seeded at a density of 7,000 cells per well in 96 well View Plate (commercially available from Packard) in a medium containing the same components as described above, except for G418. Cells were allowed to adhere and proliferate for 24 hours. […] Luciferase activity was measured by adding 50 μl of 1×Glo-lysis buffer (commercially available from Promega) for 15 minutes followed by 50 μl of the Steady-Glo Luciferase assay reagent (commercially available from Promega). Luciferase activity was measured with a luminometer and the signal in each individual well was expressed as a percentage of the untreated cultures. […] Instead the density of the culture was measured by means of the MTS method (commercially available from Promega). […]

[6] = Cytostatic effect on Huh-5-2 cells (MTS method); assay type: cell-based; settings: human, 50% inhibition of cell growth
Protocol: as §1

[7] = Homo sapiens, PBMC, LPS 1 μg/ml, 72 hours, read-out: TNF α
[8] = Homo sapiens, RPMI-1788, 50% suppression of the MLR, [3H]-thymidine incorporation, read-out: MLR
[9] = LPS 1 μg/ml, 72 hours, read-out: TNF α
[10] = 50% suppression of the MLR, [3H]-thymidine incorporation, read-out: MLR

CC(C)COc1nc(N)nc2ccc(-c3ccc(F)cc3)nc12
melting point: 196 °C

CCC(C)Oc1nc(N)nc2ccc(-c3cccc(F)c3)nc12 (stereo not shown)
melting point: 158 to 159 °C

COc1ccc(-c2ccc3nc(N)nc(N4CCOCC4)c3n2)cc1OC [Example 41, 2-amino-4-morpholino-6-(3,4-dimethoxyphenyl)-pyrido[3,2-d]pyrimidine]
IC50 [1]: 410 nM | IC50 ([2]; Homo sapiens, PBMC): 7900 nM | IC50 [3, 7]: 0.03 µM | IC50 [4, 8]: 37 nM

CC(=O)Nc1nc2ccc(Cl)nc2c(=O)[nH]1
melting point: 317 to 319 °C

CC(=O)Nc1nc(OC(C)C)c2nc(-c3ccc(F)cc3)ccc2n1
melting point: 196 to 197 °C

CC(=O)Nc1nc(OCC(C)C)c2nc(Cl)ccc2n1
melting point: 168 °C

COc1ccc(-c2ccc3nc(N)nc(N[C@H]4CC[C@H](N)CC4)c3n2)cc1OC [Example 36]
EC50 ([5]; Huh-5-2, 72 h): 1000 nM | IC50 ([3]; Homo sapiens, PBMC, 72 h, read-out: TNF α (μM)): 2.9 µM | CC50 at 72 h [6]: 7700 nM | IC50 ([4]; Homo sapiens, RPMI-1788, read-out: MLR (μM)): 6500 nM

Nc1nc(OCc2ccccc2)c2nc(-c3ccccc3F)ccc2n1
melting point: 200 to 202 °C

CC(=O)Nc1nc(OC(C)C)c2nc(Cl)ccc2n1
melting point: 244 °C

COc1ccc(-c2ccc3nc(N)nc(NCc4cccs4)c3n2)cc1OC [Example 32, 2-amino-4-(thienyl-2-methylamino)-6-(3,4-dimethoxyphenyl)-pyrido[3,2-d]pyrimidine-2,4-diamine]
IC50 [2]: 6900 nM | IC50 [3, 9]: 0.8 µM | IC50 [4, 10]: 800 nM

CCCCCOc1nc(NC(C)=O)nc2ccc(Cl)nc12
melting point: 174 °C

CCC(C)Oc1nc(N)nc2ccc(-c3ccccc3F)nc12 (stereo not shown)
melting point: 159 °C

Nc1nc2ccc(Cl)nc2c(=O)[nH]1
melting point: > 330 °C

CCCCOc1nc(N)nc2ccc(-c3ccccc3F)nc12
melting point: 147 to 148 °C

COc1ccc(-c2ccc3nc(N)nc(N4CCN(C(=O)Nc5cccc(C)c5)CC4)c3n2)cc1OC [Example 42, 2-amino-4-(4-{[(3-methylphenyl)amino]carbonyl}piperazin-1-yl)-6-(3,4-dimethoxyphenyl)-pyrido[3,2-d]pyrimidine]
IC50 [1]: 61 nM | IC50 ([2]; Homo sapiens, PBMC): 1800 nM | IC50 [3, 7]: 0.06 µM | IC50 [4, 8]: 0.064 nM

CCOc1nc(N)nc2ccc(-c3ccccc3F)nc12
melting point: 182 °C

CCCCOc1nc(N)nc2ccc(-c3ccc(F)cc3)nc12
melting point: 172 to 173 °C

CC(C)COc1nc(N)nc2ccc(-c3ccccc3F)nc12
melting point: 165 °C

CCCCOc1nc(NC(C)=O)nc2ccc(-c3ccc(F)cc3)nc12
melting point: 170 °C

CCCOc1nc(NC(C)=O)nc2ccc(Cl)nc12
melting point: 191 °C

CC(C)Oc1nc(N)nc2ccc(-c3ccc(F)cc3)nc12
melting point: 191 to 192 °C

Nc1nc(OCc2ccccc2)c2nc(-c3cccc(F)c3)ccc2n1
melting point: 199 to 200 °C

COc1ccc(-c2ccc3nc(N)nc(N4CCN(C(=O)Nc5ccsc5)CC4)c3n2)cc1OC [Example 54, 2-amino-4(N-3-thienylcarbamoyl-piperazin-1-yl)-6-(3,4-dimethoxyphenyl)-pyrido[3,2-d]pyrimidine]
PDE-4 (% inhibition) ([1]; @ 0.1 μM): 62% @ 0.1 μM | IC50 [3, 9]: 0.05 µM | IC50 [4, 10]: 2 nM

CCCCCOc1nc(N)nc2ccc(-c3ccccc3F)nc12
melting point: 136 to 137 °C

COc1ccc(-c2ccc3ncnc(N4CCN(C(=O)Nc5cccc(Cl)c5)CC4)c3n2)cc1OC(C)C [Example 214, 4-[N-(3-chloro-phenylcarbamoyl)-piperazin-1-yl]-6-(3-isopropoxy-4-methoxy-phenyl)-pyrido[3,2-d]pyrimidine]
PDE-4 (% inhibition) ([1]; @ 0.3 μM): 61% @ 0.3 μM | IC50 [3, 7]: 0.3 µM | IC50 [4, 8]: 50 nM

CCOc1nc(N)nc2ccc(-c3ccc(F)cc3)nc12
melting point: 188 to 189 °C

COc1ccc(-c2ccc3nc(C)nc(N4CCN(C(=O)Nc5cccc(C)c5)CC4)c3n2)cc1OC [Example 11]
PDE-4 (% inhibition) ([1]; @ 0.5 μM): 69% @ 0.5 μM | IC50 [3, 9]: 0.5 µM | IC50 [4, 10]: 26 nM

Nc1nc(OCc2ccccc2)c2nc(-c3ccc(F)cc3)ccc2n1
melting point: 225 °C

CCC(C)Oc1nc(N)nc2ccc(-c3ccc(F)cc3)nc12 (stereo not shown)
melting point: 148 °C

CCCCCOc1nc(N)nc2ccc(-c3cccc(F)c3)nc12
melting point: 142 to 143 °C

COc1ccc(-c2ccc3ncnc(N4CCN(C(=O)Nc5cccs5)CC4)c3n2)cc1OC [Example 109]
PDE-4 (% inhibition) ([1]; @ 0.09 μM): 58% @ 0.09 μM | IC50 [3, 9]: 0.13 µM | IC50 [4, 10]: 60 nM

COc1ccc(-c2ccc3nc(N)nc(OC(C)C)c3n2)cc1OC [Example 24, 2-amino-4-isopropoxy-6-(3,4-dimethoxyphenyl)pyrido[3,2-d]pyrimidine]
PDE-4 (% inhibition) ([1]; @ 0.5 μM): 29% @ 0.5 μM | IC50 [3, 7]: 0.5 µM | IC50 [4, 8]: 66 nM

CCC(C)Oc1nc(NC(C)=O)nc2ccc(Cl)nc12 (stereo not shown)
melting point: 143 to 144 °C

CCCCOc1nc(N)nc2ccc(-c3cccc(F)c3)nc12
melting point: 160 to 161 °C

CC(C)Oc1nc(N)nc2ccc(-c3cccc(F)c3)nc12
melting point: 200 to 201 °C

CCOc1nc(NC(C)=O)nc2ccc(Cl)nc12
melting point: 233 °C

COc1ccc(-c2ccc3nc(N)nc(Nc4cccc(C)c4)c3n2)cc1OC [Example 27, 2-amino-4-(3-methyl-anilino)-6-(3,4-dimethoxyphenyl)-pyrido[3,2-d]pyrimidine]
EC50 ([5]; Huh-5-2 replicon cells, 72 hours, read-out: EC50): 500 nM | IC50 [3, 7]: 6.4 µM | CC50 at 72 h [6]: > 50000 nM | IC50 [4, 8]: 5700 nM

COc1ccc(-c2ccc3nc(N)nc(N4CCN(C(C)=O)CC4)c3n2)cc1OC [Example 49, 2-amino-4-(N-acetyl-piperazinyl)-6-(3,4-dimethoxyphenyl)-pyrido[3,2-d]pyrimidine]
PDE-4 (% inhibition) ([1]; @ 0.04 μM): 48% @ 0.04 μM | IC50 [3, 9]: 0.04 µM | IC50 [4, 10]: 70 nM

NC(=O)c1nc(Cl)ccc1N
melting point: 176 to 177 °C

COc1ccc(-c2ccc3nc(N)nc(N4CCN(CC(=O)Nc5nccs5)CC4)c3n2)cc1OC [Example 48, 2-amino-4-[2-(piperazin-1-yl)-acetic acid N-(2-thiazolyl)-amide]-6-(3,4-dimethoxyphenyl)-pyrido[3,2-d]pyrimidine]
PDE-4 (% inhibition) ([1]; @ 0.06 μM): 59% @ 0.06 μM | IC50 [3, 9]: 0.06 µM | IC50 [4, 10]: 60 nM

CC(C)COc1nc(N)nc2ccc(-c3cccc(F)c3)nc12
melting point: 185 °C

CCOc1nc(N)nc2ccc(-c3cccc(F)c3)nc12
melting point: 174 °C

From patent publication US20090264415A2 (priority 2004, published 2009)
